Values of other authors in US4529593A, “Use of gallium salts to treat disorders of calcium homeostasis” (Sloan-Kettering Institute for Cancer Research, priority 1984, dated 1985).

Key:
[1] = test system: blood calcium levels; conditions: prior knowledge; cited from earlier work
[2] = test system: bone cells (particularly osteoclasts); conditions: comparatively brief exposure; Minkin 1973, Bockman unpublished; cited from earlier work

For `CO[C@H](C(=O)[C@@H](O)[C@@H](C)O)[C@@H]1Cc2cc3cc(O[C@H]4C[C@@H](O[C@H]5C[C@@H](O)[C@H](O)[C@@H](C)O5)[C@H](O)[C@@H](C)O4)c(C)c(O)c3c(O)c2C(=O)[C@H]1O[C@H]1C[C@@H](O[C@H]2C[C@@H](O[C@H]3C[C@](C)(O)[C@H](O)[C@@H](C)O3)[C@@H](O)[C@@H](C)O2)[C@H](O)[C@@H](C)O1` [Mithramycin], the blood calcium levels [1] is listed as “can also reduce blood calcium levels” and the “loss of bone cells (particularly osteoclasts) number” value [2] is listed as “considerable loss of bone cells”.
